Test results reported in ChEMBL document CHEMBL4371096, “Polyoxygenated Cyclohexenes and Their Chlorinated Derivatives from the Leaves of Uvaria cherrevensis” (J Nat Prod, 2019).

Legend:
Plasmodium falciparum [1] = assay: Antimalarial activity against drug-sensitive Plasmodium falciparum TM4/8.2 after 48 hrs by SYBR Green1 dye based fluorescence assay; format: functional, organism-based; settings: TM4/8.2, 48 h
Plasmodium falciparum [2] = assay: Antimalarial activity against drug-resistant Plasmodium falciparum K1CB1 after 48 hrs by SYBR Green1 dye based fluorescence assay; format: functional, organism-based; settings: K1CB1, 48 h
KB = assay: Cytotoxicity against human KB cells; format: functional, cell-based
Vero = assay: Cytotoxicity against African green monkey Vero cells; format: cell-based; settings: Chlorocebus sabaeus

Measured: IC50

CC1(C)O[C@H]2C=C[C@@H](OC(=O)c3ccccc3)[C@H](O)[C@@]2(COC(=O)c2ccccc2)O1
> 50 µM: Plasmodium falciparum [1] | Plasmodium falciparum [2] | KB | Vero

O=C(OC[C@]1(O)[C@H](OC(=O)c2ccccc2)C=C[C@@H](OC(=O)c2ccccc2)[C@@H]1O)c1ccccc1
> 50 µM: Plasmodium falciparum [1] | Plasmodium falciparum [2] | KB | Vero

O=C(OCC1=C[C@H]2Oc3ccccc3C[C@H]2[C@@H](OC(=O)c2ccccc2)[C@@H]1O)c1ccccc1
> 50 µM: Plasmodium falciparum [1] | Plasmodium falciparum [2] | KB | Vero

CC(=O)O[C@H]1C=CC=C(COC(=O)c2ccccc2)[C@@H]1O
> 50 µM: Plasmodium falciparum [1] | Plasmodium falciparum [2] | KB | Vero

O=C(OC[C@]1(O)[C@H](Cl)C=C[C@@H](OC(=O)c2ccccc2)[C@@H]1O)c1ccccc1
> 50 µM: Plasmodium falciparum [1] | Plasmodium falciparum [2] | KB | Vero

O=C(OCC1=C[C@@H](O)[C@H](O)[C@H](OC(=O)c2ccccc2)[C@H]1O)c1ccccc1
> 50 µM: Plasmodium falciparum [1] | Plasmodium falciparum [2] | KB | Vero

O=C(OC[C@]1(O)[C@H](Cl)C=C[C@H](O)[C@H]1O)c1ccccc1
> 50 µM: Plasmodium falciparum [1] | Plasmodium falciparum [2] | KB | Vero

CC(=O)O[C@H]1C=C[C@@H](Cl)[C@@](O)(COC(=O)c2ccccc2)[C@@H]1O
> 50 µM: Plasmodium falciparum [1] | Plasmodium falciparum [2] | KB | Vero

O=C(OC[C@]12O[C@H]1C=C[C@@H](OC(=O)c1ccccc1)[C@H]2O)c1ccccc1
> 50 µM: Plasmodium falciparum [1] | Plasmodium falciparum [2] | KB | Vero

O=C(OC[C@]1(O)[C@@H](O)C=C[C@@H](O)[C@@H]1O)c1ccccc1
> 50 µM: Plasmodium falciparum [1] | Plasmodium falciparum [2] | KB | Vero

CC(=O)O[C@H]1C=CC=C[C@@]1(O)COC(=O)c1ccccc1
> 50 µM: Plasmodium falciparum [1] | Plasmodium falciparum [2] | KB | Vero

CC(=O)O[C@H]1C=C[C@@H](O)[C@H](O)[C@@]1(O)COC(=O)c1ccccc1
> 50 µM: Plasmodium falciparum [1] | Plasmodium falciparum [2] | KB | Vero

CC(=O)O[C@@H]1C=C[C@@H](OC(=O)c2ccccc2)[C@H](O)[C@]1(O)COC(=O)c1ccccc1
> 50 µM: Plasmodium falciparum [1] | Plasmodium falciparum [2] | KB | Vero

O=C(OC/C=C/C=C/[C@H](O)COC(=O)c1ccccc1)c1ccccc1
> 50 µM: Plasmodium falciparum [1] | Plasmodium falciparum [2] | KB | Vero

COc1ccc2c(c1)C[C@H]1[C@@H](OC(=O)c3ccccc3)[C@H](O)C(COC(=O)c3ccccc3)=C[C@H]1O2
> 50 µM: Plasmodium falciparum [1] | Plasmodium falciparum [2] | KB | Vero
